“Also recorded” adds a separate entry of the source.
Legend:
R1-RXFP1 = assay: Indirect CRE-β-gal reporter cAMP assay, rabbit R1-RXFP1; type: cell-based, European rabbit (Oryctolagus cuniculus); conditions: 6 h at 37°C, % of 5 μM Forskolin response
Method: For the indirect cAMP assay, changes in cAMP signaling were measured by co-transfection of receptors with a CRE-β-galactosidase (CRE-β-gal) reporter construct ([11]). Cells were stimulated for 6 h at 37°C with RLN peptides or ML290 at various concentrations. A non-linear regression sigmoidal dose–response curve was then produced using GraphPad Prism. All experiments were conducted at least three times with three to four replicates each time.

[1] = test system: modified mouse receptor with humanized ECL3; conditions: ECL3 amino acids mutated, ref [5]; cited from earlier work
Excerpt: The rabbit and guinea pig receptors provide new structural templates for analysis of RLN and ML290 activation of RXFP1. […] Indeed, it was shown that primary binding of RLN to RXFP1 involve sites within LRR4, 5, 6, and 8 ([2]). In contrast, the 7TM region of RXFP1, which is the site of allosteric small-molecule agonist binding, is functional in rabbits. The opposite was true for guinea pig RXFP1: despite having the same ECL3 sequence as pig ...

HR-RXFP1 = assay: Direct HTRF cAMP assay, human/rabbit chimera HR-RXFP1; type: cell-based; conditions: transiently transfected HEK293T, % of hRXFP1 activation by 10 nM RLN
Method: (§1) The human, mouse, macaque, and pig RXFP1 cDNA constructs in baculovirus BacMam mammalian expression vector (Invitrogen, Carlsbad, CA, USA) were synthesized at the Eukaryotic Expression Group-Protein Expression laboratory (NCI, Frederick, MD, USA). The PCR primers for RT-PCR were designed to cover the full-length sequence of the open reading frame (ORF). PCR amplifications were performed with PfuUltra High-Fidelity DNA polymerase (Agilent Technologies, Santa Clara, CA, USA). Guinea pig RXFP1 (G-RXFP1) was amplified from guinea pig ovarian cDNA (Zyagen, San Diego, CA, USA). Rabbit RXFP1 (R1-RXFP1 and R2-RXFP1) cDNAs were amplified from rabbit uterus cDNA (Zyagen). All cloning was performed using the In-Fusion® HD Cloning Kit (Clontech Laboratories, Mountain View, CA, USA). Rabbit and guinea pig RXFP1s were cloned into pCR3.1 mammalian expression vector (Invitrogen). […]
(§2) Direct measurement of cAMP production was performed using the HTRF cAMP HiRange kit (CisBio, Bedford, MA, USA). […] The plates were incubated for 60 min at room temperature, and the signal was read on a FLUOstar Omega (BMG Labtech, Cary, NC, USA) plate reader. cAMP levels were calculated according to the manufacturer’s instructions against a standard curve. […]

R1H-RXFP1 and R2H-RXFP1 = assay: Direct HTRF cAMP assay, rabbit/human chimeras R1H- and R2H-RXFP1; type: cell-based; set-up: key to Activation of RXFP1 receptors: *: Weak; **: intermediate; ***: strong activation of the receptor
Method: as §1, §2

GH-RXFP1 = assay: Direct HTRF cAMP assay, guinea pig/human chimera GH-RXFP1; type: cell-based; set-up: key to Activation of RXFP1 receptors: *: Weak; **: intermediate; ***: strong activation of the receptor
Method: as §1, §2

pig RXFP1 = assay: CRE-Luc BacMam luciferase assay, pig RXFP1; type: cell-based, pig (Sus scrofa); set-up: key to Activation of RXFP1 receptors: *: Weak; **: intermediate; ***: strong activation of the receptor
Method: (§3) GloResponse™ CRE-luc2P HEK293T cells stably transfected with cAMP response element-driven luciferase (CRE-Luc) reporter (Promega, Madison, WI, USA) were transduced with human, macaque, pig, and mouse RXFP1 expression BacMam vectors according to the manufacturer’s protocol (Invitrogen) and incubated at room temperature for 2 h in the dark with occasional mixing. The volume of the cell culture was adjusted to 1000 cells/μl with DMEM + 10% FBS. Cells (3 μl, 3000 cells) were plated on 1536-well white solid-bottom TC plates and incubated overnight at 37C°, 5% CO2. Four hundred […] Ro 20-1724 (Sigma-Aldrich, St. Louis, MO, USA) in PBS (1 μl) was added in each well. The cells were treated with serial dilutions of either Forskolin (Sigma-Aldrich), ML290 ([5]) or porcine RLN at final concentrations’ range (57 μM–3.5 pM) for Forskolin and ML290, and (8.7 μM–1.8 pM, or 57 ng/μl–0.012 pg/μl] for RLN. After 2 h stimulation at 37°C, 4 μl of detection reagent from Amplite™ Luciferase reporter gene assay kit (AAT Bioquest, Sunnyvale, CA, USA) was added as a mix of 90% Component A, 5% Component C, and 5% Component D, and incubated at room temperature for 5 min. Luminescent signal was measured on Viewlux uHTS Microplate Imager (PerkinElmer, Santa Clara, CA, USA). The data were processed using GraphPad Software (San Diego, CA, USA).

mouse RXFP1 receptor = conditions: direct cAMP HTRF assay, ref [5]; cited from earlier work
human RXFP1 = assay: CRE-Luc BacMam luciferase assay, human RXFP1; type: cell-based; set-up: key to Activation of RXFP1 receptors: *: Weak; **: intermediate; ***: strong activation of the receptor
Method: as §3

macaque RXFP1 = assay: CRE-Luc BacMam luciferase assay, macaque RXFP1; type: cell-based, rhesus macaque (Macaca mullata); set-up: key to Activation of RXFP1 receptors: *: Weak; **: intermediate; ***: strong activation of the receptor
Method: as §3

R1-RXFP1 and R2-RXFP1 = assay: Direct HTRF cAMP assay, rabbit R1-RXFP1 and R2-RXFP1; type: cell-based, European rabbit (Oryctolagus cuniculus); set-up: key to Activation of RXFP1 receptors: *: Weak; **: intermediate; ***: strong activation of the receptor
Method: The human, mouse, macaque, and pig RXFP1 cDNA constructs in baculovirus BacMam mammalian expression vector (Invitrogen, Carlsbad, CA, USA) were synthesized at the Eukaryotic Expression Group-Protein Expression laboratory (NCI, Frederick, MD, USA). The PCR primers for RT-PCR were designed to cover the full-length sequence of the open reading frame (ORF). PCR amplifications were performed with PfuUltra High-Fidelity DNA polymerase (Agilent Technologies, Santa Clara, CA, USA). Guinea pig RXFP1 (G-RXFP1) was amplified from guinea pig ovarian cDNA (Zyagen, San Diego, CA, USA). Rabbit RXFP1 (R1-RXFP1 and R2-RXFP1) cDNAs were amplified from rabbit uterus cDNA (Zyagen). All cloning was performed using the In-Fusion® HD Cloning Kit (Clontech Laboratories, Mountain View, CA, USA). Rabbit and guinea pig RXFP1s were cloned into pCR3.1 mammalian expression vector (Invitrogen). In order to study RXFP1 surface expression, rabbit cDNAs were cloned into pcDNA3.1™/Zeo+ mammalian expression vector (Invitrogen), which contained an N-terminal FLAG-tag and a bovine prolactin signal sequence (3). […] To make chimeric clones, the human, guinea pig, and rabbit plasmid were used as templates to produce PCR amplicons, which were then used for overlapping PCR and subsequent cloning with the In-Fusion kit. The chimeric guinea pig/human GH-RXFP1 construct contains guinea pig RXFP1 cDNA (G-RXFP1, 1–1499 bp) encoding the ectodomain, TM1, TM2, and part of TM3 (amino acids 1–499 of G-RXFP1), and human RXFP1 (hRXFP1, 1509–2274 bp) encoding TM3 to the C-terminal tail of the receptor (amino acids 503–757 of hRXFP1) (Figure 1A). The recombinant chimeric human–rabbit HR-RXFP1 was made with the 5′-part of the hRXFP1 sequence (1–972 bp, LDLa-LRR9, 1–324 aa), with the remainder being the rabbit RXFP1 sequence (973–2277 bp, LRR9-C-terminal tail, 325–759 aa) (Figure 1A). The recombinant chimeric rabbit–human R1H-RXFP1 or R2H-RXFP1 contains the N-terminal rabbit RXFP1 sequence (1–972 bp for R1-RXFP1 or 975 bp for R2-RXFP1), with the remaining sequence being hRXFP1 (973–2274) (Figure 1A). R1- and R2-RXFP1 denote two variants of rabbit RXFP1 cDNA. All numbers correspond to the full-length cDNAs with the first nucleotide of the ORF.
HEK293T cell transient transfections were performed using Lipofectamine 2000 transfection reagent (Life Technologies, Grand Island, NY, USA) according to the manufacturer’s instructions. Cells transiently expressing the RXFP1 receptors were used within 48 h of transfection. Each construct was tested at least three times. For cell-conditioned media stimulation, HEK293T cells were transfected with the rabbit RLN construct (SQ10) or an empty pCR3.1 vector, and cells were cultured for 24 h. The media was used to stimulate HEK293T cells transfected with the RXFP1 receptors.
Direct measurement of cAMP production was performed using the HTRF cAMP HiRange kit (CisBio, Bedford, MA, USA). HEK293T cells transiently transfected with different RXFP1 receptors were stimulated with various concentrations of RLN peptides or ML290 for 60 min at 37°C, 5% CO2, after which, two HTRF detection reagents (diluted according to assay kit directions in HTRF lysis buffer) were added. The plates were incubated for 60 min at room temperature, and the signal was read on a FLUOstar Omega (BMG Labtech, Cary, NC, USA) plate reader. cAMP levels were calculated according to the manufacturer’s instructions against a standard curve. Statistical processing of the data was performed using GraphPad Prism software.

mouse RXFP1 = assay: CRE-Luc BacMam luciferase assay, mouse RXFP1; type: cell-based; conditions: CRE-luc HEK293T, 2 h, highest concentrations of ML290 (range 57 μM–3.5 pM)
Method: as §3

Activation of RXFP1 receptors (R1H-RXFP1 and R2H-RXFP1; Rabbit 1(2)/human chimera, summary grade, HEK293T cells): **
Activation of RXFP1 receptors (GH-RXFP1; Guinea pig/human chimera, summary grade, HEK293T cells): *
Activation of RXFP1 receptors (pig RXFP1; Pig receptor, summary grade, HEK293T cells): ***
Activation of RXFP1 receptors (human RXFP1; Human receptor, summary grade, HEK293T cells): ***
cAMP response (luciferase activity) (human RXFP1; human RXFP1, CRE-luc HEK293T, 2 h, ML290 57 μM–3.5 pM): responded strongly to ML290 stimulation
Activation of RXFP1 receptors (macaque RXFP1; Macaque receptor, summary grade, HEK293T cells): ***
Activation of RXFP1 receptors (R1-RXFP1 and R2-RXFP1; Rabbit 1 and 2, summary grade, HEK293T cells): **
SMILES: CC(C)Oc1ccccc1C(=O)Nc1ccccc1C(=O)Nc1cccc(S(=O)(=O)C(F)(F)F)c1 [ML290]
cAMP response (ML290), CRE-β-gal (R1-RXFP1): comparable to hRXFP1
activation of mouse receptor with humanized ECL3 [1]: activated by ML290
cAMP response (HR-RXFP1): all three receptors respond to ML290
cAMP response (R1H-RXFP1 and R2H-RXFP1; R1H- and R2H-RXFP1, HTRF, transiently transfected HEK293T, % of hRXFP1 activation by 10 nM RLN): the level of activation of R1H- and R2H-RXFP1 was higher than that of R1-, R2-, or HR-RXFP1-transfected cells
cAMP response (GH-RXFP1; GH-RXFP1, transiently transfected HEK293T, HTRF, 60 min at 37°C, % of 10 μM Forskolin response): only partially restored ML290 activation; also recorded: ML290 responsiveness, albeit to a much lower level than in hRXFP1 (p < 0.001); also recorded: efficacy of ML290 stimulation was improved, however, it was still lower than in hRXFP1-transfected cells
cAMP response (luciferase activity) (pig RXFP1; pig RXFP1, CRE-luc HEK293T, 2 h, ML290 57 μM–3.5 pM, RLN 8.7 μM–1.8 pM): responded to relaxin and ML290 treatment; also recorded: responded strongly to ML290 stimulation; also recorded: fully activated by RLN and ML290
activation of mouse RXFP1 (cAMP) (mouse RXFP1 receptor): does not activate the mouse receptor; also recorded: did not see an increase of cAMP; also recorded: no activation being seen in the direct HTRF cAMP assay; also recorded: did not activate the mouse RXFP1 receptor
cAMP response (luciferase activity) (macaque RXFP1; macaque RXFP1, CRE-luc HEK293T, 2 h, ML290 57 μM–3.5 pM, RLN 8.7 μM–1.8 pM): responded to relaxin and ML290 treatment; also recorded: responded strongly to ML290 stimulation; also recorded: fully activated by RLN and ML290
cAMP response, FLAG-tagged receptors (R1-RXFP1 and R2-RXFP1; FLAG-tagged R1- and R2-RXFP1, HTRF, 60 min, % of hRXFP1 activation by 10 nM RLN): produced a cAMP increase in cells transfected with both rabbit receptors, albeit with lesser efficacy than hRXFP1
statistical significance of response versus hRXFP1 (R1-RXFP1 and R2-RXFP1; R1- and R2-RXFP1, 10 nM relaxin peptides or 5 μM ML290, HTRF): statistically significant compared to hRXFP1, ***p < 0.001
cAMP response to 5 μM ML290 (R1-RXFP1 and R2-RXFP1; R1- and R2-RXFP1, 5 μM ML290, HTRF, transiently transfected HEK293T): responded to 5 μM of ML290
cAMP response (R1-RXFP1 and R2-RXFP1; R1-RXFP1 and R2-RXFP1, transiently transfected HEK293T, data not shown): generated an increase in cAMP
activation of rabbit RXFP1 (summary) (R1-RXFP1 and R2-RXFP1; rabbit RXFP1 variants, cAMP production, abstract/discussion): activated by ML290
cAMP response (luciferase activity) (mouse RXFP1): significant increase in luciferase activity; also recorded: activation of the CRE-reporter was observed with high-dose ML290 treatment on the mouse receptor

From publication PMC4538381, “Activation of Relaxin Family Receptor 1 from Different Mammalian Species by Relaxin Peptide and Small-Molecule Agonist ML290” (Frontiers in Endocrinology, 2015)
